Reference: US4537894A, “Methods of using compositions having antithrombotic and anti-blood-platelet-aggregating activity” (priority 1978, dated 1985)
Entries after “also recorded” stand apart in the source; their conditions may differ. Counter-ions that a name gives are not always drawn.

Tests used:
[1] = test system: blood platelets (A.D.P. induced aggregation); assay: A.D.P. induced blood-platelet aggregation after oral treatment; format: in vivo, Wistar rats; details: Rattus norvegicus, read-out: Percent Inhibition, A.D.P.
Description: Blood was taken from the jugular vein of Wistar rats. […] (a) Determination of A.D.P. induced blood-platelet aggregation 0.4 ml plasma is placed in a siliconized tube provided with a magnet bar which is also siliconized. The tube is introduced into an aggregometer coupled with an apparatus which records the optical density variations. When light transmission has reached a stable value, 0.5 ml of a solution containing 10μ M A.D.P. (adenosine-di-phosphate) is added to the tube. Blood-platelet-aggregation produces then an increase of light transmission followed by a decrease subsequent to the deaggregation phase. The maximum optical density variation thus determined characterizes the intensity of the aggregation.

[2] = test system: blood platelets (collagen-induced aggregation); assay: collagen-induced blood-platelet aggregation after oral treatment; format: in vivo, Wistar rats; details: Rattus norvegicus, read-out: Percent Inhibition, Collagen
Description: Blood was taken from the jugular vein of Wistar rats. […] 0.4 ml plasma is placed in a siliconized tube provided with a magnet bar which is also siliconized. The tube is introduced into an aggregometer coupled with an apparatus which records the optical density variations. […] Blood-platelet-aggregation produces then an increase of light transmission followed by a decrease subsequent to the deaggregation phase. The maximum optical density variation thus determined characterizes the intensity of the aggregation. (b) Determination of collagen-induced blood-platelet-aggregation The A.D.P. solution is substituted with a collagen solution (bovine tendon extract).

[3] = test system: blood platelets; assay: blood-platelet count before and after adrenalin infusion; format: in vivo, Mongrel dogs; details: for Blood-platelet count, change prior to and after adrenalin infusion: oral, twice a day, 4 days, controls 32.4% decrease; for number of blood-platelets, in words: adrenalin infusion, dogs
Description: (§1) This investigation concerned myocardial necrosis induced in animals under severe stress conditions which may be reproduced by infusion of adrenalin.
(§2) Mongrel dogs of either sex, weighing about 10 kg, were distributed into groups of 5 animals each: except for one group of untreated dogs (controls, Group 1), the other groups were orally administered the test material, twice a day, for 4 days, repsectively:
(§3) Eighteen hours after the last treatment the dogs were anesthetized with phenobarbital (25 mg/kg, i.v.); a catheter was placed in the femoral artery, the blood pressure was recorded via a STAHAM P 23 GD sensor and the ECG was recorded (D1 and D2) with a RACIA polygraph. The adrenalin was infused by the cephalic route at a dosage of 4 μg/kg/mn at a rate of 2 ml/mn for 4 hours.
Arterial blood samples were taken before and after the end of the infusion, to effect the blood-platelet counts.

[4] = test system: Mongrel dogs; assay: survival on the 7th day after adrenalin infusion; format: in vivo; details: for number of animals that survived on the 7th day after adrenalin infusion: oral, twice a day, 4 days, control 2/5; for survival time, in words: adrenalin infusion, dogs
Description: as §1, §2, §3
(§4) The animals were freed from the catheters and were allowed to wake up. The animals which survived 7 days later were sacrificed and autopsied; the hearts were cut out and examined macroscopically prior to taking samples for histological examination. Any macroscopic anomalies are rated according to the following code (Table II) which was established arbitrarily and which takes into account the extent of the damages (p.9).
The number of animals that survived on the 7th day after adrenalin infusion is reported below: […]

[5] = test system: myocardial necrosis; assay: adrenalin-induced myocardial necrosis, macroscopic lesions; format: in vivo, Mongrel dogs; details: for Macroscopic Lesions, necrosis score: oral, twice a day, 4 days, control 18.0; for necrosis / macroscopic lesions, in words: adrenalin infusion, dogs, vs controls
Description: as §1, §3, §4

[6] = acute toxicity, LD50, rabbits; details: rabbit, in vivo, iv, Miller & Tainter method, read-out: LD50 /24 hrs/kg body weight
Source text: The tests carried out concerned:

[7] = test system: platelet; details: in man; Goodman and Gilman 1975; cited from earlier work
[8] = test system: platelet aggregation (collagen); details: Packham et al 1967; cited from earlier work
[9] = test system: platelet aggregation (antigen-antibody complexes); details: Packham et al 1967; cited from earlier work
[10] = acute toxicity, LD50, rats; details: rat, in vivo
[11] = acute toxicity, LD50, mice; details: mouse, in vivo
[12] = Group 2: 50 mg/kg ticlopidine hydrochloride
[13] = Group 3: 100 mg/kg ticlopidine hydrochloride
[14] = Group 4: 10 mg/kg sulfinpyrazone, oral, 3 hours after treatment, vs control
[15] = Group 5: 20 mg/kg sulfinpyrazone, oral, 3 hours after treatment, vs control
[16] = Group 4: 20 mg/kg sulfinpyrazone
[17] = Group 5: 40 mg/kg sulfinpyrazone

SMILES: Clc1ccccc1CN1CCc2sccc2C1 [ticlopidine hydrochloride, 5-(2-chloro-benzyl)-4,5,6,7-tetrahydro-thieno[3,2-c]pyridine]
- inhibition at 25 mg/kg ([1]; po, 3 h): 28.5%
- inhibition at 50 mg/kg ([1]; po, 3 h): 40.6%
- inhibition at 25 mg/kg ([2]; po, 3 h): 48.6%
- inhibition at 50 mg/kg ([2]; po, 3 h): 58.3%
- Blood-platelet count, change prior to and after adrenalin infusion [3, 12]: +14%
- Blood-platelet count, change prior to and after adrenalin infusion [3, 13]: +13.2%
- number of blood-platelets, in words [3]: increases the number of blood-platelets
- number of animals that survived on the 7th day after adrenalin infusion [4, 12]: 3/5
- number of animals that survived on the 7th day after adrenalin infusion [4, 13]: 4/5
- survival time, in words [4]: improves the survival time
- Macroscopic Lesions, necrosis score [5, 12]: 6.8
- Macroscopic Lesions, necrosis score [5, 13]: 4.8
- necrosis / macroscopic lesions, in words [5]: significant protection against myocardia necrosis

SMILES: O=C1C(CC[S+]([O-])c2ccccc2)C(=O)N(c2ccccc2)N1c1ccccc1 (stereo not shown) [sulfinpyrazone, 1,2-diphenyl-(2'-phenylsulfinyl-ethyl)pyrazolidine-3,5-dione]
- LD50 at 24 h [6]: 195 mg/kg
- inhibition at 10 mg/kg [1, 14]: 8.7%
- inhibition at 20 mg/kg [1, 15]: 14.1%
- inhibition at 10 mg/kg [2, 14]: 12.7%
- inhibition at 20 mg/kg [2, 15]: 20.5%
- Blood-platelet count, change prior to and after adrenalin infusion [3, 16]: -12%
- Blood-platelet count, change prior to and after adrenalin infusion [3, 17]: -7%
- number of blood-platelets, in words [3]: no effect
- number of animals that survived on the 7th day after adrenalin infusion [4, 16]: 2/5
- number of animals that survived on the 7th day after adrenalin infusion [4, 17]: 2/5
- survival time, in words [4]: no effect
- Macroscopic Lesions, necrosis score [5, 16]: 18.2
- Macroscopic Lesions, necrosis score [5, 17]: 17.4
- necrosis / macroscopic lesions, in words [5]: substantially identical with those of the controls; also recorded: no effect
- platelet survival [7]: prolongs platelet survival
- platelet aggregation in response to collagen [8]: blocks platelet aggregation
- platelet aggregation in response to antigen-antibody complexes [9]: blocks platelet aggregation
- LD50 at 24 h ([10]; iv): 154 mg/kg
- LD50 at 24 h ([10]; po): 375 mg/kg
- LD50 at 24 h ([11]; iv): 240 mg/kg
- LD50 at 24 h ([11]; po): 298 mg/kg
